Experiment: log P by HPLC
Assay type: physicochemical
Conditions: HPLC, gradient method, acetonitrile/0.1% aqueous phosphoric acid; EEC directive 79/831 Annex V. A8

Compound | logP
Cc1nc2nc(Cl)c(-c3c(F)cccc3F)c(NOC3CCCCO3)n2n1 (centres unmarked) [compound 142] | 2.54
CON(C)c1c(-c2c(F)cccc2F)c(Cl)nc2nc(C)nn12 [compound 143] | 2.54
Cc1nc2nc(Cl)c(-c3c(F)cccc3F)c(NOC(C)C)n2n1 [compound 144] | 2.46
Cc1nc2nc(Cl)c(-c3c(F)cc(F)cc3F)c(NCC(C)C)n2n1 [compound 145] | 3.14
Cc1nc2nc(Cl)c(-c3c(F)cc(F)cc3F)c(NCC(C)(C)C)n2n1 [compound 146] | 3.5
CCC(C)Nc1c(-c2c(F)cc(F)cc2F)c(Cl)nc2nc(C)nn12 (centres unmarked) [compound 147] | 3.1
Cc1nc2nc(Cl)c(-c3c(F)cc(F)cc3F)c(N(C)CCN(C)C)n2n1 [compound 148] | 1.5
C#CCN(C)c1c(-c2c(F)cc(F)cc2F)c(Cl)nc2nc(C)nn12 [compound 149] | 2.77
CCOC(=O)CN(C)c1c(-c2c(F)cc(F)cc2F)c(Cl)nc2nc(C)nn12 [compound 150] | 2.8
Cc1nc2nc(Cl)c(-c3c(F)cc(F)cc3F)c(N(C)CC3OCCO3)n2n1 [compound 151] | 2.67
C=CCN(C)c1c(-c2c(F)cc(F)cc2F)c(Cl)nc2nc(C)nn12 [compound 152] | 3.18
Cc1nc2nc(Cl)c(-c3c(F)cc(F)cc3F)c(N(C)Cc3ccco3)n2n1 [compound 153] | 3.22
Cc1nc2nc(Cl)c(-c3c(F)cc(F)cc3F)c(N(C)CC(C)C)n2n1 [compound 154] | 3.63
C=C(C)CN(C)c1c(-c2c(F)cc(F)cc2F)c(Cl)nc2nc(C)nn12 [compound 155] | 3.55
CCN(CCN(C)C)c1c(-c2c(F)cc(F)cc2F)c(Cl)nc2nc(C)nn12 [compound 156] | 1.59
C=CCN(CC)c1c(-c2c(F)cc(F)cc2F)c(Cl)nc2nc(C)nn12 [compound 157] | 3.5
CCN(Cc1ccco1)c1c(-c2c(F)cc(F)cc2F)c(Cl)nc2nc(C)nn12 [compound 158] | 3.55
CCN(CC1CCCO1)c1c(-c2c(F)cc(F)cc2F)c(Cl)nc2nc(C)nn12 (centres unmarked) [compound 159] | 3.26
CCOC(=O)CN(CC)c1c(-c2c(F)cc(F)cc2F)c(Cl)nc2nc(C)nn12 [compound 160] | 3.14
CCCCN(CC)c1c(-c2c(F)cc(F)cc2F)c(Cl)nc2nc(C)nn12 [compound 161] | 4.08
CCCN(CC1CC1)c1c(-c2c(F)cc(F)cc2F)c(Cl)nc2nc(C)nn12 [compound 162] | 4.08
CCCN(CC1CCCO1)c1c(-c2c(F)cc(F)cc2F)c(Cl)nc2nc(C)nn12 (centres unmarked) [compound 163] | 3.68

Compound | logP
Cc1nc2nc(Cl)c(-c3c(F)cc(F)cc3F)c(N3CCCCC3C)n2n1 (centres unmarked) [compound 164] | 3.81
Cc1nc2nc(Cl)c(-c3c(F)cc(F)cc3F)c(N3CCCC(C)C3)n2n1 (centres unmarked) [compound 165] | 3.9
Cc1nc2nc(Cl)c(-c3c(F)cc(F)cc3F)c(N3CCC(C)CC3)n2n1 [compound 166] | 3.9
Cc1nc2nc(Cl)c(-c3c(F)cc(F)cc3F)c(N3CCC(F)CC3)n2n1 [compound 167] | 3.03
Cc1nc2nc(Cl)c(-c3c(F)cc(F)cc3F)c(N3Cc4ccccc4CO3)n2n1 [compound 168] | 3.73
Cc1nc2nc(Cl)c(-c3c(F)cccc3F)c(N3CC(C)OC(C)C3)n2n1 (centres unmarked) [compound 169] | 2.84
Cc1nc2nc(Cl)c(-c3c(F)cccc3F)c(N3CCCC3)n2n1 [compound 170] | 2.61
Cc1nc2nc(Cl)c(-c3c(F)cccc3F)c(N3CCCCC3)n2n1 [compound 171] | 3.17
CCCNc1c(-c2c(F)cccc2F)c(Cl)nc2nc(C)nn12 [compound 172] | 2.52
Cc1nc2nc(Cl)c(-c3c(F)cccc3F)c(NC3CCCC3)n2n1 [compound 173] | 2.97
Cc1nc2nc(Cl)c(-c3c(F)cccc3F)c(NC(C)C)n2n1 [compound 174] | 2.52
CCN(CC)c1c(-c2c(F)cccc2F)c(Cl)nc2nc(C)nn12 [compound 175] | 2.98
Cc1nc2nc(Cl)c(-c3c(F)cccc3F)c(N3CCOCC3)n2n1 [compound 176] | 2.2
COCCNc1c(-c2c(F)cccc2F)c(Cl)nc2nc(C)nn12 [compound 177] | 2.12
Cc1nc2nc(Cl)c(-c3c(F)cccc3F)c(NC3CC3)n2n1 [compound 178] | 2.28
Cc1nc2nc(Cl)c(-c3c(F)cccc3F)c(N3CCSCC3)n2n1 [compound 179] | 2.84
Cc1nc2nc(Cl)c(-c3c(F)cccc3F)c(N3CCC(C(F)(F)F)CC3)n2n1 [compound 180] | 3.36
Cc1nc2nc(Cl)c(-c3c(F)cccc3F)c(NCC3CC3)n2n1 [compound 181] | 2.62
Cc1nc2nc(Cl)c(-c3c(F)cccc3F)c(NC(C)C(F)(F)F)n2n1 (centres unmarked) [compound 182] | 2.78
C=C(C)CNc1c(-c2c(F)cccc2F)c(Cl)nc2nc(C)nn12 [compound 183] | 2.56
Cc1nc2nc(Cl)c(-c3c(F)cccc3F)c(NCCC(F)(F)F)n2n1 [compound 184] | 2.63
Cc1nc2nc(Cl)c(-c3c(F)cccc3F)c(NC(C)C3CCCCC3)n2n1 (centres unmarked) [compound 185] | 4

Compound | logP
Cc1nc2nc(Cl)c(-c3c(F)cccc3F)c(NC3CCCCC3)n2n1 [compound 186] | 3.28
CCC(C)Nc1c(-c2c(F)cccc2F)c(Cl)nc2nc(C)nn12 (centres unmarked) [compound 187] | 2.82
Cc1nc2nc(Cl)c(-c3c(F)cccc3F)c(NC3CCCC(C(F)(F)F)C3)n2n1 (centres unmarked) [compound 188] | 3.37
Cc1nc2nc(Cl)c(-c3c(F)cccc3F)c(NC3CC(C(F)(F)F)CC(C(F)(F)F)C3)n2n1 (centres unmarked) [compound 189] | 3.62
Cc1nc2nc(Cl)c(-c3c(F)cccc3F)c(NC3CCC(C(F)(F)F)CC3)n2n1 (centres unmarked) [compound 190] | 3.39
Cc1nc2nc(Cl)c(-c3ccc(F)cc3F)c(NCC(C)C)n2n1 [compound 191] | 3
CCCCNc1c(-c2ccc(F)cc2F)c(Cl)nc2nc(C)nn12 [compound 192] | 3.04
Cc1nc2nc(Cl)c(-c3ccc(F)cc3F)c(NCC(C)(C)C)n2n1 [compound 193] | 3.4
CCC(C)Nc1c(-c2ccc(F)cc2F)c(Cl)nc2nc(C)nn12 (centres unmarked) [compound 194] | 3.01
Cc1nc2nc(Cl)c(-c3ccc(F)cc3F)c(NCCC(F)(F)F)n2n1 [compound 195] | 2.76
Cc1nc2nc(Cl)c(-c3ccc(F)cc3F)c(NC(C)C)n2n1 [compound 196] | 2.69
Cc1nc2nc(Cl)c(-c3ccc(F)cc3F)c(NC3CCCCC3)n2n1 [compound 197] | 3.46
Cc1nc2nc(Cl)c(-c3ccc(F)cc3F)c(NC(C)C3CCCCC3)n2n1 (centres unmarked) [compound 198] | 4.24
Cc1nc2nc(Cl)c(-c3ccc(F)cc3F)c(NC3CC3)n2n1 [compound 199] | 2.45
Cc1nc2nc(Cl)c(-c3ccc(F)cc3F)c(NCC3CC3)n2n1 [compound 200] | 2.77
C=C(C)CNc1c(-c2ccc(F)cc2F)c(Cl)nc2nc(C)nn12 [compound 201] | 2.72
Cc1nc2nc(Cl)c(-c3ccc(F)cc3F)c(N(C)CC3OCCO3)n2n1 [compound 202] | 2.56
C=CCN(C)c1c(-c2ccc(F)cc2F)c(Cl)nc2nc(C)nn12 [compound 203] | 3.06
Cc1nc2nc(Cl)c(-c3ccc(F)cc3F)c(N(C)Cc3ccco3)n2n1 [compound 204] | 3.1
Cc1nc2nc(Cl)c(-c3ccc(F)cc3F)c(N(C)CC(C)C)n2n1 [compound 205] | 3.49
C=C(C)CN(C)c1c(-c2ccc(F)cc2F)c(Cl)nc2nc(C)nn12 [compound 206] | 3.41
C=CCN(CC)c1c(-c2ccc(F)cc2F)c(Cl)nc2nc(C)nn12 [compound 207] | 3.35

Compound | logP
CCN(CC1CCCO1)c1c(-c2ccc(F)cc2F)c(Cl)nc2nc(C)nn12 (centres unmarked) [compound 208] | 3.18
CCCN(CCOC)c1c(-c2ccc(F)cc2F)c(Cl)nc2nc(C)nn12 [compound 209] | 3.26
Cc1nc2nc(Cl)c(-c3ccccc3Cl)c(NCC(C)C)n2n1 [compound 210] | 3.1
Cc1nc2nc(Cl)c(-c3ccccc3Cl)c(NCC(C)(C)C)n2n1 [compound 211] | 3.57
CCC(C)Nc1c(-c2ccccc2Cl)c(Cl)nc2nc(C)nn12 (centres unmarked) [compound 212] | 3.09
Cc1nc2nc(Cl)c(-c3ccccc3Cl)c(NC3CCCC3)n2n1 [compound 213] | 3.28
Cc1nc2nc(Cl)c(-c3ccccc3Cl)c(NC(C)C)n2n1 [compound 214] | 2.75
Cc1nc2nc(Cl)c(-c3ccccc3Cl)c(NC3CC3)n2n1 [compound 215] | 2.54
Cc1nc2nc(Cl)c(-c3ccccc3Cl)c(NCC3CC3)n2n1 [compound 216] | 2.85
C=C(C)CNc1c(-c2ccccc2Cl)c(Cl)nc2nc(C)nn12 [compound 217] | 2.83
Cc1nc2nc(Cl)c(-c3ccccc3Cl)c(NC(C)CC(C)C)n2n1 (centres unmarked) [compound 218] | 3.84
Cc1nc2nc(Cl)c(-c3ccccc3Cl)c(N(C)CC3OCCO3)n2n1 [compound 219] | 2.62
C=CCN(C)c1c(-c2ccccc2Cl)c(Cl)nc2nc(C)nn12 [compound 220] | 3.19
Cc1nc2nc(Cl)c(-c3ccccc3Cl)c(N(C)CC(C)C)n2n1 [compound 221] | 3.65
COCCN(C)c1c(-c2ccccc2Cl)c(Cl)nc2nc(C)nn12 [compound 222] | 2.64
C=C(C)CN(C)c1c(-c2ccccc2Cl)c(Cl)nc2nc(C)nn12 [compound 223] | 3.57
C=CCN(CC)c1c(-c2ccccc2Cl)c(Cl)nc2nc(C)nn12 [compound 224] | 3.5
CCN(CCOC)c1c(-c2ccccc2Cl)c(Cl)nc2nc(C)nn12 [compound 225] | 2.94
Cc1nc2nc(Cl)c(-c3ccccc3Cl)c(N3CCCC3C)n2n1 (centres unmarked) [compound 226] | 3.27
Cc1nc2nc(Cl)c(-c3ccccc3Cl)c(N3CCCC3)n2n1 [compound 227] | 0.75

Reference: patent publication US7186831B2, “5-halo-2-alkyl[1,2,4]triazolo[1,5-a]pyrimidin-7-amines” (priority 2001, dated 2007)
